Reference: patent publication US6583172B1, “Anticonvulsant derivatives useful in treating chronic neurodegenerative disorders” (priority 1999, dated 2003)
Where no end group is shown, it is not given here.

Columns and labels:
rat facial nerve = assay: Rat facial nerve compression model of peripheral nerve injury, restoration of whisker movement; format: in vivo
Experimental: In the study in vivo, topiramate was evaluated in a rat facial nerve compression model of peripheral nerve injury. Rats were anesthetized, their skin and muscle excised to visualize the facial nerve. The nerve was injured near the stylom by compression with forceps. The wound was sutured and the rat allowed to recover before compound administration. The rats were divided into three groups: vehicle-treated, topiramate-treated (p.o., 20 mg/kg) and α-MSH-treated (s.c., 1 mg/kg). Compounds were administered twice daily for 14 days post-surgery. Facial nerve compression causes paralysis of the whisker muscle ipsilateral to the injury site. Restoration of whisker movement (lesioned versus non-lesioned side) was monitored daily for 14 days. Spontaneous recovery of whisker movement was detected as early as 10 days post-surgery with full recovery achieved by 13 days.
FIG. 3 is a line graph illustrating the effects of topiramate and α-MSH on the restoration of facial nerve function in rats, as measured by the rate whisker movement. The total rate of whisker movement on the side that the facial nerve was not injured was assigned a value of 100. Whisker movement on the side of the injured nerve is presented as a percent ±SEM of the whisker movement on the non-injured side. The rate of whisker movement was monitored visually by a skilled observer blinded to the treatment each rat received.

[1] = tested on: rodent models of epilepsy; conditions: several rodent models of epilepsy; cited from earlier work
[2] = tested on: animal model of kindled epilepsy; conditions: cited from earlier work
[3] = tested on: rat cerebral cortical cells; assay: Neurite outgrowth in rat cerebral cortical cell cultures, MAP-2 immunofluorescence; format: cell-based; conditions: p<0.05
Experimental: (§1) In studies in vitro, cultures of rat hippocampal and cerebral cortical cells were established from embryonic day 18 pups. The cells were grown in culture wells (plates) for seven days in the presence of various concentrations of topiramate (0.1 nM-100 nM), or the neurotrophic factors BDNF (brain-derived neurotrophic, 10 ng) and α-MSH (alpha-melanocyte stimulating hormone, 50 nM), or vehicle (isotonic saline). Each compound was added to the culture medium in a specified set of wells at the time the cells were plated and then again four days later when the culture media was removed and replaced with fresh media. On the seventh day in culture, the cells were treated with formalin, a tissue fixative. Subsequently, the cells were treated with a fluorescein-labeled antibody specific for microtubule associated protein-2 (MAP-2), a selective marker for dendritic processes. The amount of fluorescein-labeled antibody bound to MAP-2 (FITC signal) in each well was analytically determined. This information was then used to calculate the relative degree of neurite outgrowth for the cells in each well. […] FIG. 2 is a bar graph illustrating the effects of topiramate, BDNF,α-MSH and GPI on neurite outgrowth in rat cerebral cortical cell cultures, as measured by MAP-2 immunofluorescence. […]

[4] = tested on: simple and complex partial seizures and secondarily generalized seizures; conditions: human epilepsy; cited from earlier work
rat hippocampal cells = assay: Neurite outgrowth in rat hippocampal cell cultures, MAP-2 immunofluorescence; format: cell-based; conditions: seven days in culture, concentrations ranging from 100 nM to 100 μM, P<0.05
Experimental: as §1, with “wells ([…]),” for “wells (plates) for seven days in the presence of various concentrations of topiramate (0.1 nM-100 nM),”, “FIG. 1” for “FIG. 2”, “rat hippocampal” for “rat cerebral cortical”

Molecule: CC1(C)O[C@@H]2[C@@H](CO[C@@]3(COS(N)(=O)=O)OC(C)(C)O[C@@H]23)O1 [topiramate, 2,3:4,5-bis-O-(1-methylethylidene)-β-D-fructopyranose sulfamate]
- whisker movement recovery, day 11 (rat facial nerve; p.o., 20 mg/kg twice daily, day 11 post-surgery, vehicle=19%, p<0.001): 60%
- whisker movement recovery, day 12 (rat facial nerve; p.o., 20 mg/kg twice daily, day 12 post-surgery, vehicle=68%, p<0.01): 92%
- block of seizures [1]: effectively block seizures
- block of seizures [2]: effectively block seizures
- neurite outgrowth ([3]; 100 nM): 119 % of control
- neurite outgrowth ([3]; 10 μM): 119 % of control
- efficacy in treating seizures in clinical trials [4]: effective as adjunctive therapy or as monotherapy
- increase in neurite outgrowth (FITC signal, MAP-2) versus vehicle (rat hippocampal cells): significantly higher

Molecule: α-MSH: alpha-melanocyte stimulating hormone, neurotrophic factor used as comparator (SYSMEHFRWGKPV; ends and bridges not checked; UniProt P01189 138-150, looked up)
- increase in whisker movement recovery versus vehicle, days 11 and 12 (rat facial nerve; s.c., 1 mg/kg twice daily, days 11 and 12 post-surgery): smaller, statistically nonsignificant increase
